The values that follow come from patent US12016899B2, “Compositions comprising Sel1-derived peptides and methods of treatment/prevention of excess oxalate levels and associated conditions/diseases therewith” (The University of Chicago, priority 2018, dated 2024).

Entries after “also recorded” stand apart in the source; their conditions may differ. Primed or numbered codes have the meaning given here. Where no end group is shown, it is not given here. [ ]: non-standard residue; d: D form. PEG6′ = Peg: PEG6 in place of glycine

For experiment [1], the system named is human sigmoid colon organoid. Kind of experiment: oxalate transport by human sigmoid colon organoid. It is filed as cell-based. Here is the method: (§1) Although the transformed C2 cells resemble the native epithelium, they don't fully recapitulate the in vivo physiological responses. Primary stem-cell derived intestinal organoids (Orgs) were recently established as an ex vivo model of the intestinal epithelium, and they mimic the full spectrum of physiological responses in vivo. Therefore, experiments were conducted during development of embodiments herein to confirm the C2 findings in colonic organoids.
(§2) To recapitulate the findings in vivo, primary stem-cell derived intestinal organoids (Org) were used which have been established as an ex vivo model of the intestinal epithelium with a full spectrum of physiological responses found in vivo (Ref. 35; incorporated by reference in its entirety). A human sigmoid colonic Org (from a healthy individual) was grown and maintained as previously reported (Ref. 34; incorporated by reference in its entirety). Org cells were plated onto collagen-coated transwell filters and formed monolayers. Monolayer confluency and differentiation was confirmed by transepithelial electrical resistance measurements (Ref. 34; incorporated by reference in its entirety).

Experiment [2] concerns human ileum organoid. Briefly: oxalate transport by human ileum organoid. In kind it is cell-based. Conditions: 500 μM DIDS; ileum Org.
Experiment [3] has as its system human intestinal Caco2-BBE (C2) cells. The note with it: cited from earlier work; for stimulation of oxalate transport by cells (Sel1 proteins), in words: PCT/US18/14494.
The test system is the same in experiment [4]. Kind of experiment: 14C-oxalate influx (oxalate transport) by Caco2-BBE (C2) cells. The note with it: for effect of trace element added to P8 or P9 on oxalate transport, in words: C2 cells, versus peptide alone. It is filed as cell-based. Here is the method:
Toward this end, Of culture conditioned medium (CM) was prepared as recently reported (Ref. 4; herein incorporated by reference in its entirety) and human intestinal Caco2-BBE (C2) cells were used to evaluate the effects of Of CM on intestinal oxalate transport. Apical oxalate uptake by C2 cells was measured by imposing an outward Cl gradient by removing extracellular Cl [Cli>Clo] (Refs. 3, 4, 14; incorporated by reference in their entireties) and measuring DIDS (anion exchange inhibitor)-sensitive influx of 14C-oxalate in exchange for intracellular Cl [i.e. apical Cl-oxalate exchange activity, ≥49% of which is mediated by the oxalate transporter SLC26A6 (A6) in C2 cells (4, 12))].
The inventors sought to identify trace elements to better stimulate oxalate transport by facilitating the binding of P8 and/or P9 to a cell surface receptor. The inventors analyzed combinations of P8 and P9 alone or with aluminum, zinc, or magnesium by measuring C14 oxalate transport in C2 cells.

Experiment [5] deals with human distal colon organoid. Briefly: oxalate transport by human distal colon organoid. It is filed as cell-based. Here is the method:
as §1, §2

As for `O=S(=O)(O)c1cc(N=C=S)ccc1C=Cc1ccc(N=C=S)cc1S(=O)(=O)O` [DIDS, reference compound], the “inhibition of 14C-oxalate influx” value in experiment [1] (100 μM DIDS, sigmoid colonic Org) is listed as about 70%. Further, the “inhibition of oxalate transport” value in experiment [2] is on record as about 80%. Regarding `O=S(=O)(NCCNC/C=C/c1ccc(Br)cc1)c1cccc2cnccc12` [Peptide H89, H89, reference compound], the “effect of pretreatment on CM-induced oxalate transport” value in experiment [3] (PKA inhibitor pretreatment, Ref. 4) was “completely blocked”.

`[Al]` [aluminum]: the “effect of trace element added to P8 or P9 on oxalate transport, in words” value in experiment [4] is “did not result in increased oxalate transport”. Same read-out and setting: the entry for `[Cl-].[Cl-].[Zn+2]` [zinc chloride] is “not”. In the case of “AKAQY(Peg)L(Peg)ILYAK(Peg)Q(Peg)VAPDQEKALILYRMAATQ(Peg) (AKAQY[PEG6′]L[PEG6′]ILYAK[PEG6′]Q[PEG6′]VAPDQEKALILYRMAATQ[PEG6′]) [Peptide P9-Peg]”, the “stimulation of oxalate transport (14C-oxalate influx) by C2 cells, in words” value (from here on “stimulation … by C2 cells, in words”) in experiment [4] (Caco2-BBE cells, listed as P9 with all glycines replaced with PEG6) is given as “similarly stimulated; also recorded: significantly stimulate”. “AKAQYGLGILYAKGQ(d-alanine)VAPDQEKALILYRMAATQG (AKAQYGLGILYAKGQ[dA]VAPDQEKALILYRMAATQG) [Peptide P9-Daa]”: the “stimulation of oxalate transport by sigmoid colon organoid, in words” value in experiment [1] is reported as “significantly stimulate”. For the same molecule, the “stimulation of oxalate transport by distal colon organoid, in words” value in experiment [5] is “significantly stimulate”. Moreover, in experiment [4] (Caco2-BBE cells, listed as P9 with G16 replaced with D-alanine), the “stimulation … by C2 cells, in words” value is “similarly stimulated; also recorded: significantly stimulate”.

Take “AKAQYGLGILYAKGQGVAPDQEKALILYRMAATQG-Am (AKAQYGLGILYAKGQGVAPDQEKALILYRMAATQG-NH2) [Peptide P9-Am]”: the “stimulation of oxalate transport by sigmoid colon organoid, in words” value in experiment [1] is recorded as “significantly stimulate”. Further, the “stimulation of oxalate transport by distal colon organoid, in words” value in experiment [5] is given as “significantly stimulate”. Moreover, in experiment [4] (Caco2-BBE cells, listed as P9 with C-terminal amidation), the “stimulation … by C2 cells, in words” value is recorded as “significantly stimulate”. With “ARAQFNLGKTFYIGAGINKNTDKAVYWFIKAANQG [Peptide P5]”, the “stimulation … by C2 cells, in words” value in experiment [4] (Caco2-BBE cells) is given as “no effects”. Take “Ac-AKAQYGLGILYAKGQGVAPDQEKALILYRMAATQG [Peptide P9-Ac]”: the “stimulation of oxalate transport by sigmoid colon organoid, in words” value in experiment [1] was “significantly stimulate”. For the same molecule, in experiment [5], the “stimulation of oxalate transport by distal colon organoid, in words” value is “significantly stimulate”. Also, the “stimulation … by C2 cells, in words” value in experiment [4] (Caco2-BBE cells, listed as P9 with N-terminal acetylation) is on record as “significantly stimulate”. On to “Ac-DAQYMLGAMSVEGIGLPKDSQVALTWLSKAAAQGD [Peptide P8-Ac]”, for which, in experiment [4] (Caco2-BBE cells, listed as P8 with N-terminal acetylation), the “stimulation … by C2 cells, in words” value is reported as “significantly stimulate”. For “DAQYMLA(Peg)MSVE(Peg)I(Peg)LPKDSQVALTWLSKAAAQ(Peg)D (DAQYMLA[PEG6′]MSVE[PEG6′]I[PEG6′]LPKDSQVALTWLSKAAAQ[PEG6′]D) [Peptide P8-Peg]”, in experiment [4] (Caco2-BBE cells, listed as P8 with all glycines replaced with PEG6), the “stimulation … by C2 cells, in words” value is reported as “similarly stimulated; also recorded: significantly stimulate”. “DAQYMLGAMSVEGI(d-alanine)LPKDSQVALTWLSKAAAQGD (DAQYMLGAMSVEGI[dA]LPKDSQVALTWLSKAAAQGD) [Peptide P8-Daa]”: the “stimulation … by C2 cells, in words” value in experiment [4] (Caco2-BBE cells, listed as P8 with G15 replaced with D-alanine) is on record as “similarly stimulated; also recorded: significantly stimulate”. On to “DAQYMLGAMSVEGIGLPKDSQVALTWLSKAAAQGD-Am (DAQYMLGAMSVEGIGLPKDSQVALTWLSKAAAQGD-NH2) [Peptide P8-Am]”, for which the “stimulation … by C2 cells, in words” value in experiment [4] (Caco2-BBE cells, listed as P8 with C-terminal amidation) was “significantly stimulate”. Consider “ESQNNLGALYNDGNGVDRDYQEAVFWYRKSALQGD [Peptide P6]”, for which the “stimulation … by C2 cells, in words” value in experiment [4] (Caco2-BBE cells) was “no effects”.

With “QSQYNLGIAYEEGWGAEKNPENAVFWYRKAAEQGH [Peptide P4]”, the “stimulation of oxalate transport (14C-oxalate influx) by C2 cells” value in experiment [4] (Caco2-BBE cells) was determined as 1.5 fold.

B1: 318: Sel1 protein 318 (52 kDa) of Oxalobacter formigenes (protein)
chain: MKRRVLYGVLFAVLAGCSAGALASVSGLSDGLAQLERRQFESAYATLMPEAEKGNPRAALEVGKLLLTGRGVAKDEAAAVKWLLVAADSGNRDAQYMLGAMSVEGIGLPKDSQVALTWLSKAAAQGDARAKTALGILMQSAGPGSQHTEQAARWFERAAASGEPEAQRRWALMLASGRGVAKNEGEALKWFKKAAVAGDVEAQRNLGIMLSTGKGVTGGKPDFAEAARWYGLAAKKGDAKAQYGLGILYAKGQGVAPDQEKALILYRMAATQGLATAEYAVGLAYAYGRGTAQNDVKAADWFEAAAQQGVVRAQYNLALMLEAGRGRPVDTVAASKWFLMAAEKGLREAQYNMGYHYAEGKGVPRDQGKAVFWYEKAAAAGDVKAQYNLGMLYLNGVNGKADDEKAAFFYRMAAGAGYGPAMYRLAVLYEEGRGVKQSYQLAGEWYERADLAAKVKIDEAMKKNPHPFVQRTLQVPDDLNQSSDKLAGH
Take B1: the “stimulation of oxalate transport by cells (Sel1 proteins), in words” value in experiment [3] is on record as “significantly stimulating; also recorded: most potent stimulators”.

B2: 301: Sel1 protein 301 (54 kDa) of Oxalobacter formigenes (protein)
chain: MSSVIADSQQPAVSEENANKIILDEEKAVIQCNERYKTENDEKGDEETVSWCRKAAKSGNAEAQYLFGMLVYDGRGVQQDNCVAMLWWMKAAEQNHAKALVMLGNLHRKGQCIAENYPKAIAYWKRAAVQNNVWAYHNLGTAYYDGIGVDKNPHEAVRWWKKAAELGFPESQNNLGALYNDGNGVDRDYQEAVFWYRKSALQGDELGQYNLGVAYYYGRGIKKDFSEAVSWYKKSAEQDYAQAQHNLGVTYYEGEGIKKDYAKAVYWWKKAAEQGIPQSQYNLGIAYEEGWGAEKNPENAVFWYRKAAEQGHADAQNRLGIAYRYGTGVRKNPALSVKWLEKAAKQGLARAQFNLGKTFYIGAGINKNTDKAVYWFIKAANQGFTEAQAYIGMIYFKGKYVAKNEKKGFYWLKKAAEKDSAKAQAFLGALYIAGNEVKPNIKEGVALTKKAALQGNYEAQTLLGFCYENGLEVKKDLIAAYALYLSASPHFDFAEKARLDLERKLSEQEIAKAISVNTAKLFE
Take B2: the “stimulation of oxalate transport by cells (Sel1 proteins), in words” value in experiment [3] is given as “significantly stimulating; also recorded: most potent stimulators”.
